Test results taken from paper PMC10299677, “Fluorinated Benzofuran and Dihydrobenzofuran as Anti-Inflammatory and Potential Anticancer Agents” (International Journal of Molecular Sciences, 2023).
pIC50: −log10 of the molar value. Entries after “also recorded” stand apart in the source; their conditions may differ.

Key:
[1] = tested on: zymosan-induced air pouch inflammation; assay: Subcutaneous zymosan-induced air pouch model of inflammation; format: in vivo, C57BL/6J mice; settings: 50 nmol per pouch co-injected with 1% zymosan, 24 h
Protocol: Figure 5 Effect of fluorinated benzofuran and dihydrobenzofuran on inflammation in the zymosan-treated sterile air pouch model in mice. (A) A timeline for the zymosan-induced inflammation experiments of the air pouch model in C57/BL6 mice. The pouch was formed on day 1 and refilled on day 4 with sterile air. Mice were injected at day 6 with 1% zymosan (w/v in saline), or 0.5 mL of saline for control mice. An amount of 50 nmol of compounds 2, 3, 5, and 6, or vehicle, were co-injected into the air pouch. At 24 h post-treatment, exudates were collected. (B) Recruited cells in the pouch and PGE2 production. (C) Gene expressions of inflammatory enzymes Ptgs2 and Nos2, proinflammatory cytokines Il1α and Il1β, and chemokines Ccl3 and Ccl4. Data correspond to the mean ± SEM (n = 6–8 mice per group); * p < 0.05 compared to the zymosan-treated cells (one-way ANOVA followed by Dunnett’s test).
C57BL/6J female mice (8-week-old, 20–25 g) were kept at 5 per cage on a 12 h light–dark cycle with cotton cocoon as enrichment in temperature- and humidity-controlled rooms. Mice were provided with food and water ad libitum, and food intake and body weight were monitored throughout the study period. Approval for use of animals was obtained from the IACUC (16-11-393). Dorsal air pouches were created in mice as previously described. Six days after the initial injection of sterile air, 0.5 mL of saline containing 100 µM of benzofuran compounds 2, 3, 5, or 6 (50 nmol per pouch) or 0.2% DMSO as vehicle was co-injected in the pouch with 0.5 mL of 0.9% saline (for the control group) or 0.5 mL of 1% zymosan (w/v, for zymosan and zymosan + compound) (Sigma-Aldrich, 400140). At 24 h after treatment, the animals were sacrificed by CO2 inhalation and the air pouch washed, the exudates collected, and the cell number determined. As previously reported, the main subtype of leukocytes present in the air pouch were neutrophils (75%) and monocytes–macrophages (12–15%), as determined by selective flow cytometry. The concentrations of PGE2, CCL2, and IL-6 and the gene expression were assessed as described previously.
For gene expression, RT-PCR was performed as described previously. Briefly, cell pellets obtained by centrifugation of air pouch exudates at 300× g for 5 min at 4 °C were suspended in TriPure (Sigma Aldrich 11667165001). An amount of 2 μg of total RNA was reverse-transcribed using iScript cDNA synthesis kit (Bio-Rad Laboratories, 1708891). RT-PCR was carried out on CFX384 cycler using iTaq Universal SYBR Green Supermix kit (Bio-Rad Laboratories, 1725121) and the primers obtained from TIB Molbiol (Berlin, Germany). Oligonucleotide sequences were according to the references, except for Ptgs2 and Nos2, which were as follows: Ptgs2 (F): […]; Ptgs2 (R): […]; Nos2 (F): […]; Nos2 (R): […]. Gene expression was calculated using ^ΔΔCT method relative to the housekeeping gene 18S.

[2] = tested on: PGE2; assay: PGE2 release in LPS-treated macrophages (BMDM); format: cell-based, C57BL/6J mice; settings: for blocking of PGE2 formation in response to LPS: 50 µM; for blocking of PGE2 formation in response to LPS / effect on PGE2 production in response to LPS: 10 ng/mL LPS 24 h; for pIC50: compounds 30 min prior to 10 ng/mL LPS for 24 h; for effect on PGE2 production in response to LPS: 10 µM for compounds 1, 7, 9, 50 µM for others
Protocol: (§1) C57BL/6J (10–15 weeks old) male mice were obtained from the animal care facility at the American University of Beirut. All animal procedures were performed following the recommendations of the IACUC (Institutional Animal Care and Use Committee approval 16-09-M379). BMDMs were prepared and characterized as described previously by our group. BMDMs were isolated from C57BL/6J mice by flushing the femur and tibia with RPMI-1640 culture media (Sigma-Aldrich R7388), and cells were collected and centrifuged at 300× g for 5 min. The supernatant was discarded, and the pellet was resuspended in 2 mL red blood lysis 10% (Sigma-Aldrich R7767) medium in PBS and incubated for 5 min at room temperature. After diluting the suspension of cells with 5 mL of RPMI containing 10% FBS and 1% penicillin–streptomycin, cells were centrifuged at 300× g for 5 min, and the cell pellet was resuspended in RPMI media containing 10% FBS supplemented with 15% L929-conditioned medium containing macrophage-colony stimulating factor (M-CSF1) and plated on […]. Cells were allowed to proliferate and differentiate for 5–6 days. Cells were harvested, washed, and allowed to adhere overnight in RPMI containing 10% FBS for treatment. Cells were previously characterized by flow cytometry as macrophages using this method. […] Cells were plated at 0.8 × 10^6 cells per 3.8 cm^2 well [27].
(§2) BMDMs were then treated with different concentrations of the benzofuran and dihydrobenzofuran derivatives for 30 min prior to the addition of 10 ng/mL LPS for 24 h. […] The supernatants were assessed for IL-6, PGE2, CCL2, and nitrite, the stable derivative of NO, as described previously.
(§3) IL-6, CCL2, nitrite (for NO), and PGE2 concentrations from 3–5 independent experiments were expressed as percentage of LPS alone and as mean ± SEM. COX activity was determined as percentage of PGE2 produced from exogenous arachidonic acid. Curve fitting and calculation of IC50 values were performed using GraphPad Prism (version 9.5.1 Software, La Jolla, CA, USA).

[3] = tested on: IL-6; assay: IL-6 release in LPS-treated macrophages (BMDM); format: cell-based, C57BL/6J mice; settings: for decrease of IL-6 production: 50 µM, LPS 24 h; for pIC50: Mus musculus, Macrophage, compounds 30 min prior to 10 ng/mL LPS for 24 h
Protocol: as §1, §2, §3

| SMILES | pIC50 ([2]; Mus musculus, Macrophage) | pIC50 [2] | pIC50 [3] | IL-6 production in air pouch, ELISA [1] | PGE2 levels in air pouch exudates [1] | number of cells of the air pouch exudates [1] | gene expression of proinflammatory genes (Il1a, Il1b, Ccl3, Ccl4, Ptgs2, Nos2) in air pouch cells ([1]; RT-PCR) | blocking of PGE2 formation in response to LPS [2] | decrease of IL-6 production [3] | effect on PGE2 production in response to LPS [2] | CCL2 formation in air pouch, ELISA [1] | expression of Ccl4 in air pouch cells ([1]; RT-PCR) |
| --- | --- | --- | --- | --- | --- | --- | --- | --- | --- | --- | --- | --- |
| O=C(O)/C=C1/Oc2ccc(Br)cc2C1(F)F [Compound 2] | 5.72 | 5.72 | 5.91 | inhibited | inhibited | significantly reduced | strong inhibition | more than 50% | more than 50% |  |  |  |
| COC(=O)CC1(O)Oc2ccc(Br)cc2C1(F)F (centres unmarked) [Compound 8] | 4.69 |  | 5.04 |  |  |  |  |  | more than 50% | inhibited partial; also recorded: partial inhibition |  |  |
| O=C(O)Cc1oc2ccc(-c3ccccc3)cc2c1F [Compound 5] | 5.72 |  |  |  |  | significantly reduced |  |  |  | very potent inhibitors | inhibited |  |

Further compounds by rising pIC50 ([2]; Mus musculus, Macrophage), results first:

| pIC50 ([2]; Mus musculus, Macrophage) | pIC50 [2] | pIC50 [3] | SMILES | IL-6 production in air pouch, ELISA [1] | PGE2 levels in air pouch exudates [1] | number of cells of the air pouch exudates [1] | gene expression of proinflammatory genes (Il1a, Il1b, Ccl3, Ccl4, Ptgs2, Nos2) in air pouch cells ([1]; RT-PCR) | blocking of PGE2 formation in response to LPS [2] | decrease of IL-6 production [3] | effect on PGE2 production in response to LPS [2] | CCL2 formation in air pouch, ELISA [1] | expression of Ccl4 in air pouch cells ([1]; RT-PCR) |
| --- | --- | --- | --- | --- | --- | --- | --- | --- | --- | --- | --- | --- |
| 5.83 |  | 5.28 | O=C(O)/C=C1\Oc2ccc(Br)cc2C1(F)F [Compound 3] |  | inhibited | significantly reduced |  | more than 50% | more than 50% |  | inhibited | modestly inhibited |
| 5.95 |  |  | C=C(C)c1ccc2oc(CC(=O)O)c(F)c2c1 [Compound 6] | inhibited | inhibited | significantly reduced |  |  |  | very potent inhibitors | inhibited | modestly inhibited |
